Test results published in patent US6551615B1, “Dexibuprofen-containing soft gelatin capsules and process for preparing the same” (M/s. Strides Arcolab Limited, priority 2001, dated 2003).

Key:
[1] = Compatibility of dexibuprofen with glycerin plasticizer; assay type: physicochemical; settings: in some instances
From the text: In general, gelatin capsule formulations for soft gelatin capsules comprise raw gelatin and one or more plasticizers added to adjust the hardness of the capsule. Typical plasticizers include glycerin, sorbitol and Anidrisorb 85/70. A preferred plasticizer is Anidrisorb 85/70, an aqueous solution of D-sorbitol and sorbitans. […] One preferred gelatin formulation for the soft gelatin capsules used in accordance with preferred embodiments includes gelatin in the range of about 40% to 48% and a plasticizer ranging in amount from about 20% to 35%. Another preferred plasticizer is sorbitol BP, a non-crystallizing sorbitol solution. When either a 70%, non-crystallizing sorbitol solution or Anidrisorb 85/70 are used alone, the amount of plasticizer used preferaby ranges from about 25% to 35%. Capsule formulations can also include other suitable additives, for example coloring agents, which impart specific characteristics such as the look and feel of the capsule. FD&C dyes and D & C dyes are examples of pharmaceutically acceptable coloring agents that may be used in preferred embodiments.

[2] = cited from earlier work

CC(C)Cc1ccc([C@H](C)C(=O)O)cc1 [Dexibuprofen, (S)-(+)-2-(4-isobutylphenyl)propionic acid]
Reaction with glycerin (plasticizer of the capsule shell) [1]: forming unwanted glycerol esters of dexibuprofen
Solubility in acetone ([2]; acetone): freely soluble
Solubility in aqueous solutions of alkali hydroxides and carbonates ([2]; aqueous solutions of alkali hydroxides and carbonates): soluble
Solubility in methanol ([2]; methanol): freely soluble
Solubility in methylene chloride ([2]; methylene chloride): freely soluble
Solubility in most organic solvents ([2]; most organic solvents): readily soluble
Solubility in water ([2]; water): practically insoluble
